SMILES strings stand for the structures. Some results are limits rather than exact numbers.

Usually IC50 stands for the midpoint of a concentration-inhibition curve. Higher therefore signals weaker potency.

Sequence of Tie-2 (Q02763 23-1124): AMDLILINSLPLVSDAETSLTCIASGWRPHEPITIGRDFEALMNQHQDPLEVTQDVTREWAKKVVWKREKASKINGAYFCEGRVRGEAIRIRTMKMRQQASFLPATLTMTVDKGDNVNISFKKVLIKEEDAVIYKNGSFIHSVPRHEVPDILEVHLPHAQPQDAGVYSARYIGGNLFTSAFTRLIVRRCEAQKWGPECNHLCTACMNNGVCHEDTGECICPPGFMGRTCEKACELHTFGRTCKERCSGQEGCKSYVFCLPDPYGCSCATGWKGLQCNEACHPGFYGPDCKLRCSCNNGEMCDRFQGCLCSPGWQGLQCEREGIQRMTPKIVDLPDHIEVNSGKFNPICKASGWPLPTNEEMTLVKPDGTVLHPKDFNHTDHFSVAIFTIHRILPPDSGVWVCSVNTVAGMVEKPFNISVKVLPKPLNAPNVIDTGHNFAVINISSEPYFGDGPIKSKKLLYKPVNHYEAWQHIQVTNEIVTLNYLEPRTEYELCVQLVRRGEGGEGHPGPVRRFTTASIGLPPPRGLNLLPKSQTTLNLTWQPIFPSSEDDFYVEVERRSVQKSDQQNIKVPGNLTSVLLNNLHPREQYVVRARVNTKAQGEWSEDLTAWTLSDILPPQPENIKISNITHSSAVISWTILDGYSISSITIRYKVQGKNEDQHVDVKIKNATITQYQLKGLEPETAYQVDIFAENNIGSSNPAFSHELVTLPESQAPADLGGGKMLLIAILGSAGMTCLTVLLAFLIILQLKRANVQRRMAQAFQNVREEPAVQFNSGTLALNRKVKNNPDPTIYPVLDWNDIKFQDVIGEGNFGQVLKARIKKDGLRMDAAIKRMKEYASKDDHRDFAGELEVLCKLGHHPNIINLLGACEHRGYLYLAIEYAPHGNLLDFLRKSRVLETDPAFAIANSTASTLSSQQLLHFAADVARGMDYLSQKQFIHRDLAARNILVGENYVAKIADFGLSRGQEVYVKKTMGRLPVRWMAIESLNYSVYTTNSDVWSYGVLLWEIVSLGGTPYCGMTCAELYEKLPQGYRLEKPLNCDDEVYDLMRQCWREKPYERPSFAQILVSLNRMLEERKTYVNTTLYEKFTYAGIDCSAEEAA

The assay addresses Tie-2 (Homo sapiens, UniProt Q02763). As to the kind of experiment: Tie-2 tyrosine kinase activity: kinase-dependent ATP consumption (pEY substrate, luciferase/luciferin chemiluminescence) or 33P-ATP incorporation into substrate. The format is biochemical. Conditions: Tie-2 (human enzyme) inhibition, Table 2, class symbols A-D. An outline of the steps: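 Tie-2 kinase activity is read either as ATP consumption with pEY substrate by luciferase/luciferin chemiluminescence, or as 33P incorporation from 33P-ATP into plate-adsorbed substrate by scintillation counting. IC50 values are binned as A <50 nM, B >50–1000 nM, C >1000–<10,000 nM, and D ≥10,000 nM.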
Compound `COc1ccc(-c2nc(-c3ccncc3)nn2CCN(C(=O)Nc2cc(Cl)ccc2Cl)C2CCCC2)cc1Cl` [Entry 133, N-(2-{5-[3-chloro-4-(methyloxy)phenyl]-3-pyridin-4-yl-1H-1,2,4-triazol-1-yl}ethyl)-N-cyclopentyl-N′-(2,5-dichlorophenyl)urea] registered an IC50 of at least 10 µM.

With `COc1ccc(-c2nc(-c3ccncc3)nn2CCN(C(=O)Nc2cccc(F)c2)C2CCCC2)cc1Cl` [Entry 134, N-(2-{5-[3-chloro-4-(methyloxy)phenyl]-3-pyridin-4-yl-1H-1,2,4-triazol-1-yl}ethyl)-N-cyclopentyl-N′-(3-fluorophenyl)urea], the 50% inhibitory concentration (IC50) is 1 to 10 µM.

Compound `COc1ccc(-c2nc(-c3ccncc3)nn2CCN(C(=O)Nc2ccc(Cl)cc2)C2CCCC2)cc1Cl` [Entry 135, N-(2-{5-[3-chloro-4-(methyloxy)phenyl]-3-pyridin-4-yl-1H-1,2,4-triazol-1-yl}ethyl)-N′-(4-chlorophenyl)-N-cyclopentylurea] returned an IC50 of at least 10 µM.

For the compound `COc1ccc(-c2nc(-c3ccncc3)nn2CCN(C(=O)Nc2ccc(C)cc2)C2CCCC2)cc1Cl` [Entry 136, N-(2-{5-[3-chloro-4-(methyloxy)phenyl]-3-pyridin-4-yl-1H-1,2,4-triazol-1-yl}ethyl)-N-cyclopentyl-N′-(4-methylphenyl)urea], the concentration for half-maximal inhibition (IC50) was at least 10 µM.

For `COc1ccc(-c2nc(-c3ccncc3)nn2CCN(C(=O)Nc2c(Cl)cc(Cl)cc2Cl)C2CCCC2)cc1Cl` [Entry 137, N-(2-{5-[3-chloro-4-(methyloxy)phenyl]-3-pyridin-4-yl-1H-1,2,4-triazol-1-yl}ethyl)-N-cyclopentyl-N′-(2,4,6-trichlorophenyl)urea], the IC50 was at least 10 µM.

As to `COc1ccc(NC(=O)N(CCn2nc(-c3ccncc3)nc2-c2ccc(OC)c(Cl)c2)C2CCCC2)c(C)c1` [Entry 138, N-(2-{5-[3-chloro-4-(methyloxy)phenyl]-3-pyridin-4-yl-1H-1,2,4-triazol-1-yl}ethyl)-N-cyclopentyl-N′-[2-methyl-4-(methyloxy)phenyl]urea], the half-inhibitory concentration (IC50) lay within 1 to 10 µM.

Consider `COc1ccc(-c2nc(-c3ccncc3)nn2CCN(C(=O)Nc2cc(C)ccc2C)C2CCCC2)cc1Cl` [Entry 139, N-(2-{5-[3-chloro-4-(methyloxy)phenyl]-3-pyridin-4-yl-1H-1,2,4-triazol-1-yl}ethyl)-N-cyclopentyl-N′-(2,5-dimethylphenyl)urea], for which the IC50 lay in the range of 1 to 10 µM.

Take `COc1ccc(-c2nc(-c3ccncc3)nn2CCN(C(=O)Nc2cc(Cl)c(OC)cc2OC)C2CCCC2)cc1Cl` [Entry 140, N′-[5-chloro-2,4-bis(methyloxy)phenyl]-N-(2-{5-[3-chloro-4-(methyloxy)phenyl]-3-pyridin-4-yl-1H-1,2,4-triazol-1-yl}ethyl)-N-cyclopentylurea]: the concentration for half-maximal inhibition (IC50) is at least 10 µM.

In turn, `COc1ccc(-c2nc(-c3ccncc3)nn2CCN(C(=O)Nc2cc(Cl)cc(Cl)c2)C2CCCC2)cc1Cl` [Entry 141, N-(2-{5-[3-chloro-4-(methyloxy)phenyl]-3-pyridin-4-yl-1H-1,2,4-triazol-1-yl}ethyl)-N-cyclopentyl-N′-(3,5-dichlorophenyl)urea] displayed a concentration for half-maximal inhibition (IC50) of at least 10 µM.

As to `COc1ccc(-c2nc(-c3ccncc3)nn2CCN(C(=O)Nc2cc(Cl)ccc2OC)C2CCCC2)cc1Cl` [Entry 142, N′-[5-chloro-2-(methyloxy)phenyl]-N-(2-{5-[3-chloro-4-(methyloxy)phenyl]-3-pyridin-4-yl-1H-1,2,4-triazol-1-yl}ethyl)-N-cyclopentylurea], the IC50 was at least 10 µM.

Compound `COc1ccc(-c2nc(-c3ccncc3)nn2CCN(C(=O)Nc2cccc(SC)c2)C2CCCC2)cc1Cl` [Entry 143, N-(2-{5-[3-chloro-4-(methyloxy)phenyl]-3-pyridin-4-yl-1H-1,2,4-triazol-1-yl}ethyl)-N-cyclopentyl-N′-[3-(methylthio)phenyl]urea] yielded an IC50 of at least 10 µM.

With `COc1ccc(-c2nc(-c3ccncc3)nn2CCN(C(=O)Nc2cc(C)cc(C)c2)C2CCCC2)cc1Cl` [Entry 144, N-(2-{5-[3-chloro-4-(methyloxy)phenyl]-3-pyridin-4-yl-1H-1,2,4-triazol-1-yl}ethyl)-N-cyclopentyl-N′-(3,5-dimethylphenyl)urea], the concentration for half-maximal inhibition (IC50) was at least 10 µM.

`COc1ccc(-c2nc(-c3ccncc3)nn2CCN(C(=O)Nc2cc(C)ccc2OC)C2CCCC2)cc1Cl` [Entry 145, N-(2-{5-[3-chloro-4-(methyloxy)phenyl]-3-pyridin-4-yl-1H-1,2,4-triazol-1-yl}ethyl)-N-cyclopentyl-N′-[5-methyl-2-(methyloxy)phenyl]urea] yielded a 50% inhibitory concentration (IC50) of at least 10 µM.

In turn, `COc1ccc(-c2nc(-c3ccncc3)nn2CCN(C(=O)Nc2ccc(I)cc2)C2CCCC2)cc1Cl` [Entry 146, N-(2-{5-[3-chloro-4-(methyloxy)phenyl]-3-pyridin-4-yl-1H-1,2,4-triazol-1-yl}ethyl)-N-cyclopentyl-N′-(4-iodophenyl)urea] showed an IC50 of at least 10 µM.

On to `COc1ccc(-c2nc(-c3ccncc3)nn2CCN(C(=O)Nc2ccc(Oc3ccccc3)cc2)C2CCCC2)cc1Cl` [Entry 147, N-(2-{5-[3-chloro-4-(methyloxy)phenyl]-3-pyridin-4-yl-1H-1,2,4-triazol-1-yl}ethyl)-N-cyclopentyl-N′-[4-(phenyloxy)phenyl]urea], for which the IC50 was at least 10 µM.

Compound `COc1ccc(-c2nc(-c3ccncc3)nn2CCN(C(=O)Nc2c(C)cc(C)cc2C)C2CCCC2)cc1Cl` [Entry 148, N-(2-{5-[3-chloro-4-(methyloxy)phenyl]-3-pyridin-4-yl-1H-1,2,4-triazol-1-yl}ethyl)-N-cyclopentyl-N′-(2,4,6-trimethylphenyl)urea] displayed an IC50 of at least 10 µM.

The compound `COc1ccc(-c2nc(-c3ccncc3)nn2CCN(C(=O)Nc2cc(Cl)ccc2C)C2CCCC2)cc1Cl` [Entry 149, N-(2-{5-[3-chloro-4-(methyloxy)phenyl]-3-pyridin-4-yl-1H-1,2,4-triazol-1-yl}ethyl)-N′-(5-chloro-2-methylphenyl)-N-cyclopentylurea] displayed a half-inhibitory concentration (IC50) of 1 to 10 µM.

Consider `COc1ccc(-c2nc(-c3ccncc3)nn2CCN(C(=O)Nc2ccc(Cl)cc2C)C2CCCC2)cc1Cl` [Entry 150, N-(2-{5-[3-chloro-4-(methyloxy)phenyl]-3-pyridin-4-yl-1H-1,2,4-triazol-1-yl}ethyl)-N′-(4-chloro-2-methylphenyl)-N-cyclopentylurea], for which the IC50 is 1 to 10 µM.

On to `COc1ccc(-c2nc(-c3ccncc3)nn2CCN(C(=O)Nc2c(C)cccc2Cl)C2CCCC2)cc1Cl` [Entry 151, N-(2-{5-[3-chloro-4-(methyloxy)phenyl]-3-pyridin-4-yl-1H-1,2,4-triazol-1-yl}ethyl)-N′-(2-chloro-6-methylphenyl)-N-cyclopentylurea], for which the IC50 is at least 10 µM.

Turning to `COc1ccc(-c2nc(-c3ccncc3)nn2CCN(C(=O)Nc2cccc(Cl)c2C)C2CCCC2)cc1Cl` [Entry 152, N-(2-{5-[3-chloro-4-(methyloxy)phenyl]-3-pyridin-4-yl-1H-1,2,4-triazol-1-yl}ethyl)-N′-(3-chloro-2-methylphenyl)-N-cyclopentylurea], the IC50 lay within 0.05 to 1 µM.

In turn, `COc1ccc(-c2nc(-c3ccncc3)nn2CCN(C(=O)Nc2ccc(F)c(Cl)c2)C2CCCC2)cc1Cl` [Entry 153, N′-(3-chloro-4-fluorophenyl)-N-(2-{5-[3-chloro-4-(methyloxy)phenyl]-3-pyridin-4-yl-1H-1,2,4-triazol-1-yl}ethyl)-N-cyclopentylurea] displayed a 50% inhibitory concentration (IC50) of at least 10 µM.

The values above are taken from patent publication US8178570B2, “Tie-2 modulators and methods of use” (Exelixis, Inc., priority 2003, dated 2012).
